From patent US11773381B2, “Cell penetrating peptide, conjugate comprising same, and composition comprising conjugate” (GemVax & KAEL CO., LTD., priority 2012, dated 2023)

Each sequence was assayed on HeLa cell (assay: Cell penetration of pep(CPP)-FITC conjugates in HeLa cell line, flow cytometry (FACS)). Conditions: HeLa cells, 20 μM of each carrier peptide combined with FITC, 37° C. for an hour, control cells treated only FITC.
Type: cell-based, Homo sapiens
Method: Homo sapiens cervix adenocarcinoma cell line as HeLa cell lines were purchased from ATCC (American Type Cell Culture). The cells were cultured in MEM supplemented with 10% fetal bovine serum (Invitrogen, USA), Earle's salts, non-essential amino acids, sodium pyruvate and 100 μg/ml penicillin and 10 units/ml streptomycin and cultured at 37° C., 5% CO2 incubator.
Flow cytometry and Confocal microscope analysis were performed to compare the between degree of cellular uptake of the cells were treated with SEQ ID NO: 1 to SEQ ID NO: 156, pep (CPP) and control.
The cell line was divided in a 6-well plate and cultured in a medium containing 10% fetal bovine serum (Invitrogen, USA), […] at 37° C., 5% CO2 incubator for 12 hours. After washing the cell line with PBS, starvation was induced in a Minimum Essential Medium for an hour. 20 μM of each carrier peptide was treated and cultured at 37° C. for an hour. After repeating the step of washing the cells with PBS for three times, Trypsin-EDTA was treated form 10 mins at 37° C. to separate the carrier peptide on the outside of the cell. cells were collected with refrigerated PBS and centrifugation was performed to repeat the step of washing the cells for three times. After then, the cells were suspended in 0.5 ml of PBS containing 4% Paraformaldehyde and fluorescence of the cells was analyzed using FACS Calibur (Becton Dickinson). The cellular uptake aspect of control and various peptides combined with FITC was compared and analyzed by MFI (Mean Fluorescence Intensity).
Analysis results shown in FIG. 1 to FIG. 23 are given in detail in Table 3 below.

Row | Sequence | cellular uptake, MFI (Mean Fluorescence Intensity)
1 | VLPLATFVRRLGPQGWRLVQ (listed as Homo sapiens) [pep51] | 59.81 ± 1.38
2 | VRRYAVVQKAAHGEVRKAFK (VRRYAVVQKAAHGHVRKAFK; listed as Homo sapiens) [pep87] | 38.35 ± 2.27
3 | VTETTFQKNRLFFYR (listed as Homo sapiens) [pep37] | 20.81 ± 1.02
4 | WMPGTPRRLPRLPQRYWQMR (listed as Homo sapiens) [pep126] | 3362.29 ± 3.24
5 | WSKLQSIGIRQHLKRVQLRE (listed as Homo sapiens) [pep79] | 31.2 ± 1.52
6 | YERARRPGL (listed as Homo sapiens) [pep11] | 10.46 ± 1.99
7 | YERARRPGLL (listed as Homo sapiens) [pep20] | 20.73 ± 2.45
